Assays:
Format in all cases: in vivo
[1] = tested on: rice (Oryza saliva); assay: Test C flooded paddy test; details: for Rice plant response rating: Flooded Paddy, scale 0 to 100, 0 no effect, 100 complete control; for Plant response rating, Rice: flooded paddy test, scale 0 to 100 (0 no effect, 100 complete control)
How it was run: (§1)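 Greenhouse-maintained for 12 to 14 days after treatment, the paddy plants (2-leaf stage at application) were scored visually against controls. A score of 0 denotes no effect and a score of 100 denotes complete control.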

[2] = tested on: smallflower flatsedge (Cyperus difformis); assay: Test C flooded paddy test; details: for Flatsedge plant response rating: Flooded Paddy, scale 0 to 100, 0 no effect, 100 complete control; for Plant response rating, Flatsedge: flooded paddy test, scale 0 to 100 (0 no effect, 100 complete control)
How it was run: as §1

[3] = tested on: duck salad (Heteranthera limosa); assay: Test C flooded paddy test; details: for Ducksalad plant response rating: Flooded Paddy, scale 0 to 100, 0 no effect, 100 complete control; for Plant response rating, Ducksalad: flooded paddy test, scale 0 to 100 (0 no effect, 100 complete control)
How it was run: as §1

[4] = tested on: barnyardgrass (Echinochloa crus-galli); assay: Test C flooded paddy test; details: for Barnyardgrass plant response rating: Flooded Paddy, scale 0 to 100, 0 no effect, 100 complete control; for Plant response rating, Barnyardgrass: flooded paddy test, scale 0 to 100 (0 no effect, 100 complete control)
How it was run: as §1

[5] = tested on: lambsquarters (Chenopodium album); assay: Test B preemergence
From the text: (§2) Seeds selected from barnyardgrass (Echinochloa crus-galli), Surinam grass (Brachiaria decumbens), cocklebur (Xanthium strumarium), corn (Zea mays), crabgrass (Digitaria sanguinalis), giant foxtail (Setaria faberii), lambsquarters (Chenopodium album), morning glory (Ipomoea hederacea), pigweed (Amaranthus retroflexus), rice (Oryza saliva) and velvetleaf (Abutilon theophrasti) were planted and treated preemergence with test chemicals formulated in a non-phytotoxic solvent mixture which included a surfactant.
(§3) At the same time, plants selected from these crop and weed species and also blackgrass (Alopecurus myosuroides), wheat (Triticum aestivum) and wild oat (Avena fatua) were treated with postemergence applications of test chemicals formulated in the same manner. Plants ranged in height from 2 to 18 cm (1- to 4-leaf stage) for postemergence treatments. Plant species in the flooded paddy test consisted of rice (Oryza saliva), smallflower flatsedge (Cyperus difformis), duck salad (Heteranthera limosa) and barnyardgrass (Echinochloa crus-galli) grown to the 2-leaf stage for testing. Treated plants and controls were maintained in a greenhouse for 13 to 15 days, after which time all species were compared to controls and visually evaluated. Plant response ratings, summarized in Table B, are based on a scale of 0 to 100 where 0 is no effect and 100 is complete control. A dash (-) response means no test result.

[6] = tested on: morning glory (Ipomoea hederacea); assay: Test B preemergence
From the text: as §2, §3

[7] = tested on: giant foxtail (Setaria faberii); assay: Test B preemergence
From the text: as §2, §3

[8] = tested on: cocklebur (Xanthium strumarium); assay: Test B preemergence
From the text: as §2, §3

[9] = tested on: pigweed (Amaranthus retroflexus); assay: Test B preemergence
From the text: as §2, §3

[10] = tested on: rice (Oryza saliva); assay: Test B preemergence
From the text: as §2, §3

[11] = tested on: velvetleaf (Abutilon theophrasti); assay: Test B preemergence
From the text: as §2, §3

[12] = tested on: corn (Zea mays); assay: Test B preemergence
From the text: as §2, §3

[13] = tested on: Surinam grass (Brachiaria decumbens); assay: Test B preemergence
From the text: as §2, §3

[14] = tested on: barnyardgrass (Echinochloa crus-galli); assay: Test B preemergence
From the text: as §2, §3

[15] = tested on: crabgrass (Digitaria sanguinalis); assay: Test B preemergence
From the text: as §2, §3

[16] = tested on: lambsquarters (Chenopodium album); assay: Test B postemergence
From the text: as §2, §3

[17] = tested on: morning glory (Ipomoea hederacea); assay: Test B postemergence
From the text: as §2, §3

[18] = tested on: giant foxtail (Setaria faberii); assay: Test B postemergence
From the text: as §2, §3

[19] = tested on: cocklebur (Xanthium strumarium); assay: Test B postemergence
From the text: as §2, §3

[20] = tested on: pigweed (Amaranthus retroflexus); assay: Test B postemergence
From the text: as §2, §3

[21] = tested on: velvetleaf (Abutilon theophrasti); assay: Test B postemergence
From the text: as §2, §3

[22] = tested on: corn (Zea mays); assay: Test B postemergence
From the text: as §2, §3

[23] = tested on: blackgrass (Alopecurus myosuroides); assay: Test B postemergence
From the text: as §2, §3

[24] = tested on: wheat (Triticum aestivum); assay: Test B postemergence
From the text: as §2, §3

[25] = tested on: Surinam grass (Brachiaria decumbens); assay: Test B postemergence
From the text: as §2, §3

[26] = tested on: barnyardgrass (Echinochloa crus-galli); assay: Test B postemergence
From the text: as §2, §3

[27] = tested on: crabgrass (Digitaria sanguinalis); assay: Test B postemergence
From the text: as §2, §3

[28] = tested on: wild oat (Avena fatua); assay: Test B postemergence
From the text: as §2, §3

[29] = Preemergence, Rate 500 g/ha, scale 0 to 100, 0 no effect, 100 complete control
[30] = preemergence, Rate 125 g/ha, scale of 0 to 100 where 0 is no effect and 100 is complete control, 13 to 15 days
[31] = Rate 125 g/ha, scale 0 to 100, 0 no effect, 100 complete control
[32] = Rate 500 g/ha, scale 0 to 100, 0 is no effect, 100 is complete control, 13 to 15 days
[33] = Rate 125 g/ha, scale 0 (no effect) to 100 (complete control), 13 to 15 days

Cc1cccc(N2CCC(n3ccc(C(C)(C)C)n3)C2=O)c1 (stereo not drawn) [Compound 112]
Rice plant response rating ([1]; Rate 250 g/ha): 20
Rice plant response rating ([1]; Rate 500 g/ha): 70
Plant response rating, Rice ([1]; Rate 62 g/ha): 0
Plant response rating, Rice ([1]; Rate 125 g/ha): 0
Flatsedge plant response rating ([2]; Rate 250 g/ha): 100
Flatsedge plant response rating ([2]; Rate 500 g/ha): 100
Plant response rating, Flatsedge ([2]; Rate 62 g/ha): 20
Plant response rating, Flatsedge ([2]; Rate 125 g/ha): 50
Ducksalad plant response rating ([3]; Rate 250 g/ha): 20
Ducksalad plant response rating ([3]; Rate 500 g/ha): 30
Plant response rating, Ducksalad ([3]; Rate 62 g/ha): 0
Plant response rating, Ducksalad ([3]; Rate 125 g/ha): 0
Barnyardgrass plant response rating ([4]; Rate 250 g/ha): 20
Barnyardgrass plant response rating ([4]; Rate 500 g/ha): 60
Plant response rating, Barnyardgrass ([4]; Rate 62 g/ha): 0
Plant response rating, Barnyardgrass ([4]; Rate 125 g/ha): 0
Plant response rating, Lambsquarters [5, 29]: 100
Plant response rating, Lambsquarters [5, 30]: 100
Plant response rating, Morningglory [6, 29]: 30
Plant response rating, Morningglory [6, 30]: 30
Plant response rating, Foxtail, Giant [7, 29]: 100
Plant response rating, Foxtail, Giant [7, 30]: 100
Plant response rating, Cocklebur [8, 29]: 0
Plant response rating, Cocklebur [8, 30]: 0
Plant response rating, Pigweed [9, 29]: 100
Plant response rating, Pigweed [9, 30]: 100
Plant response rating, Rice [10, 29]: 100
Plant response rating, Rice [10, 30]: 0
Plant response rating, Velvetleaf [11, 29]: 0
Plant response rating, Velvetleaf [11, 30]: 0
Plant response rating, Corn [12, 29]: 30
Plant response rating, Corn [12, 30]: 0
Plant response rating, Surinam grass [13, 29]: 30
Plant response rating, Surinam grass [13, 30]: 10
Plant response rating, Barnyardgrass [14, 29]: 100
Plant response rating, Barnyardgrass [14, 30]: 90
Plant response rating, Crabgrass [15, 29]: 100
Plant response rating, Crabgrass [15, 30]: 100
Plant response rating, Lambsquarters [16, 31]: 30
Plant response rating, Lambsquarters [16, 32]: 30
Plant response rating, Morningglory [17, 31]: 20
Plant response rating, Morningglory [17, 32]: 50
Plant response rating, Foxtail, Giant [18, 31]: 0
Plant response rating, Foxtail, Giant [18, 32]: 0
Plant response rating, Cocklebur [19, 31]: 0
Plant response rating, Cocklebur [19, 32]: 0
Plant response rating, Pigweed [20, 31]: 60
Plant response rating, Pigweed [20, 32]: 80
Plant response rating, Velvetleaf [21, 31]: 0
Plant response rating, Velvetleaf [21, 32]: 0
Plant response rating, Corn [22, 31]: 0
Plant response rating, Corn [22, 32]: 0
Plant response rating, Blackgrass [23, 31]: 0
Plant response rating, Blackgrass [23, 32]: 0
Plant response rating, Wheat [24, 31]: 40
Plant response rating, Wheat [24, 32]: 40
Plant response rating, Surinam grass [25, 31]: 0
Plant response rating, Surinam grass [25, 32]: 100
Plant response rating, Barnyardgrass [26, 31]: 0
Plant response rating, Barnyardgrass [26, 32]: 20
Plant response rating, Crabgrass [27, 31]: 30
Plant response rating, Crabgrass [27, 32]: 30
Plant response rating, Wild Oat [28, 31]: 30
Plant response rating, Wild Oat [28, 32]: 60

CC(C)(C)c1ccn(C2OCN(c3cccc(OC(F)(F)F)c3)C2=O)n1 (stereo not drawn) [Compound 66]
Rice plant response rating ([1]; Rate 250 g/ha): 50
Rice plant response rating ([1]; Rate 500 g/ha): 100
Plant response rating, Rice ([1]; Rate 62 g/ha): 0
Plant response rating, Rice ([1]; Rate 125 g/ha): 0
Flatsedge plant response rating ([2]; Rate 250 g/ha): 100
Flatsedge plant response rating ([2]; Rate 500 g/ha): 100
Plant response rating, Flatsedge ([2]; Rate 62 g/ha): 100
Plant response rating, Flatsedge ([2]; Rate 125 g/ha): 100
Ducksalad plant response rating ([3]; Rate 250 g/ha): 100
Ducksalad plant response rating ([3]; Rate 500 g/ha): 100
Plant response rating, Ducksalad ([3]; Rate 62 g/ha): 30
Plant response rating, Ducksalad ([3]; Rate 125 g/ha): 90
Barnyardgrass plant response rating ([4]; Rate 250 g/ha): 100
Barnyardgrass plant response rating ([4]; Rate 500 g/ha): 100
Plant response rating, Barnyardgrass ([4]; Rate 62 g/ha): 70
Plant response rating, Barnyardgrass ([4]; Rate 125 g/ha): 100
Plant response rating, Lambsquarters [5, 29]: 100
Plant response rating, Lambsquarters [5, 30]: 100
Plant response rating, Morningglory [6, 29]: 20
Plant response rating, Foxtail, Giant [7, 29]: 40
Plant response rating, Foxtail, Giant [7, 30]: 20
Plant response rating, Cocklebur [8, 29]: 0
Plant response rating, Pigweed [9, 29]: 100
Plant response rating, Pigweed [9, 30]: 100
Plant response rating, Rice [10, 29]: 20
Plant response rating, Rice [10, 30]: 0
Plant response rating, Velvetleaf [11, 29]: 20
Plant response rating, Velvetleaf [11, 30]: 0
Plant response rating, Corn [12, 29]: 0
Plant response rating, Corn [12, 30]: 0
Plant response rating, Surinam grass [13, 29]: 20
Plant response rating, Surinam grass [13, 30]: 20
Plant response rating, Barnyardgrass [14, 29]: 100
Plant response rating, Barnyardgrass [14, 30]: 100
Plant response rating, Crabgrass [15, 29]: 40
Plant response rating, Crabgrass [15, 30]: 0
Plant response rating, Lambsquarters [16, 33]: 90
Plant response rating, Lambsquarters [16, 32]: 90
Plant response rating, Morningglory [17, 33]: 0
Plant response rating, Morningglory [17, 32]: 0
Plant response rating, Foxtail, Giant [18, 33]: 0
Plant response rating, Foxtail, Giant [18, 32]: 60
Plant response rating, Cocklebur [19, 33]: 0
Plant response rating, Cocklebur [19, 32]: 20
Plant response rating, Pigweed [20, 33]: 0
Plant response rating, Pigweed [20, 32]: 0
Plant response rating, Velvetleaf [21, 33]: 20
Plant response rating, Velvetleaf [21, 32]: 20
Plant response rating, Corn [22, 33]: 0
Plant response rating, Corn [22, 32]: 0
Plant response rating, Blackgrass [23, 33]: 0
Plant response rating, Blackgrass [23, 32]: 0
Plant response rating, Wheat [24, 33]: 0
Plant response rating, Wheat [24, 32]: 0
Plant response rating, Surinam grass [25, 33]: 0
Plant response rating, Surinam grass [25, 32]: 30
Plant response rating, Barnyardgrass [26, 33]: 100
Plant response rating, Barnyardgrass [26, 32]: 100
Plant response rating, Crabgrass [27, 33]: 30
Plant response rating, Crabgrass [27, 32]: 100
Plant response rating, Wild Oat [28, 33]: 0
Plant response rating, Wild Oat [28, 32]: 0

From patent publication US7138361B2, “Herbicidal heterocycles” (E. I. du Pont de Nemours and Company, priority 2000, dated 2006)
